Reference: article PMC4965013, “Open Source Drug Discovery with the Malaria Box Compound Collection for Neglected Diseases and Beyond” (PLoS Pathogens, 2016)
pEC50: −log10 of the molar value. Read-outs that look alike come from different tables or passages of the source.

How the values were obtained:
[1] = test system: P. falciparum 3D7 gametocytes stage IV-V; assay: Gametocyte pLDH assay UMIL; assay type: cell-based; details: Plasmodium falciparum, 3D7, 72 h
Experimental: Columns BO-BR: Taramelli group (Columns BO-BP data presented first in this paper, Columns BQ-BR are new data except as noted below). Gametocytocidal activity at UMIL. The Malaria Box compounds were used for primary screening against P. falciparum 3D7 gametocytes and subsequently for IC50 determination against Pf gametocytes obtained from the 3D7 and the 3D7elo1-pfs16-CBG99 transgenic strain [74], as previously described. The primary screening was performed on stage IV-V gametocytes from the 3D7 strain at 3.7 µM, in 96 well plates, using 100 nM epoxomicin and 1 µM DHA as positive controls and 0.5% DMSO as negative untreated control. […] The dose-response experiments were performed in 96 well plates using the 3D7 strain (pLDH, 72+72h, column BR in heat map) and the 3D7elo1-pfs16-CBG99 (luciferase assay, 72h, column BQ in heat map). Data analysis was performed as described.

B. bovis (Texas strain) = assay: B. bovis fluorescence-based growth assay; assay type: cell-based; details: Babesia bovis, in Bos taurus
Haemonchus contortus = Haemonchus contortus Scynexis; assay type: cell-based; details: 10µM
Aedes aegypti = Aedes aegypti Scynexis; details: 10µM
Experimental: Supplement ppat.1005763.s002.xlsx, sheet "S1 Table Heat Map" | column: Aedes aegypti % dead 48hr 10 µM Synexis

[2] = test system: Saccharomyces cerevisiae ABC16-Monster; assay: S. cerevisiae ABC16-Monster growth inhibition; assay type: cell-based; details: ABC16MONSTER, read-out: S. cerevisiae strain ABC16-Monster in YPD % inhibition
Experimental: Column EA: Suzuki group (data presented first in this paper). Screening of MMV compounds for Saccharomyces cerevisiae ABC16-Monster growth inhibition. Methods: Compounds were added at 100 micromolar to YPD medium (1% yeast extract, 2% peptone, and 2% glucose). Only the solvent dimethyl sulfoxide (DMSO) without any MMV compound was added at 1% to the negative control. The initial density of ABC16-Monster cells corresponded to optical density at 600 nanometers (OD600) of 0.01. Cells were cultured without agitation in a 96-well plate at 30 degrees Celsius for 18 hours and then resuspended for measurement of OD600. For each compound, two cultures were conducted and examined. The average OD600 value was used. To calculate percent inhibition, OD600 for cells cultured with a compound was divided by OD600 for the negative control. The ABC16-Monster yeast strain was previously described.

[3] = test system: Mycobacterium marinum in Acanthamoeba castellanii; assay: A. castellanii-M. marinum infection assay; assay type: cell-based; details: 10µM
Experimental: Columns FA-FC: Soldati Group (data presented first in this paper). M. marinum, D. discoideum, and Acathamoeba castellani assays. Each compound of the Malaria Box has been assayed at 10 µM in all three assays. First, the antibiotic activity was assayed directly against Mycobacterium marinum in its culture medium. Second, the toxicity and growth inhibitory effect of the compounds was assayed against the amoeba Dictyostelium discoideum in its culture medium. Finally, the “in cellulo” anti-infective activity of each compound was tested using the intracellular infection system Acanthamoeba castellanii-M. marinum. Values have been normalized using the DMSO carrier. For each assay, values have been normalized to 1.00 using the DMSO carrier, which has no detectable effect on D. discoideum nor M. marinum growth, while rifabutin was used as positive control for the antibiotic assay and the infection assay, as it abolishes M. marinum growth (normalized value under 0.10) in broth at 10 µM and intracellularly at 30 µM [150].

[4] = test system: HIV-1 JR-FL or HIV-1 NL4-3 viruses; assay: HIV-1 viral production p24 ELISA; assay type: cell-based
Experimental: Columns FK-GB, Moore group (data presented first in this paper). HIV and HIV-producing cell lines, toxicity and viral suppression. […] MMV compounds were incubated with HIV-1 JR-FL or HIV-1 NL4-3 pseudoviruses and U87-CD4-CCR5 or U87-CD4-CXCR4 cells (obtained through the NIH AIDS Reagent Program, Division of AIDS, NIAID, NIH: U87 CD4+CCR5+ Cells from Dr. HongKui Deng and Dr. Dan R. Littman) respectively for 3 days. Cells were assayed for infection by luciferase production (Bright-Glo Luciferase Substrate, Promega) and cell viability by MTT assay. […] MMV compounds were next incubated with HIV-1 JR-FL or HIV-1 NL4-3 viruses and U87-CD4-CCR5 or U87-CD4-CXCR4 cells respectively for 7 days. Cell supernatants were assayed for viral production by p24 ELISA [153] and cell viability by MTT assay. […] DMSO (5%) was completely toxic to all cells (based on visual inspection) and served as the positive control for MTT assays.

[5] = test system: P. berghei liver stage in HepG2-A16-CD81EGFP; set-up: method as in ref [58, 65] (a number printed in a supplementary file, which may have a reference list of its own: not looked up in the article's list); details: ref [58, 65], cited from earlier work; for P. berghei Liver stage activity summary: 50uM; for P. berghei Liver stage infection rate rep1 (luciferase) / P. berghei Liver stage infection rate rep2 (luciferase): 50µM
[6] = 3.7 µM, read-out: gametocytes 3D7, stage IV-V, pLDH, 72+72h, %inhibition
[7] = 3.7µM, read-out: gametocytes 3D7, stage IV-V, pLDH, 72h, %inhibition
[8] = Human immunodeficiency virus 1, NL43, read-out: HIV R5 % inhibition rep3 in U87 (P24 NO Washout)
[9] = Human immunodeficiency virus 1, NL43, read-out: HIV R5 % inhibition rep3 in U87 (P24 Washout)
[10] = Human immunodeficiency virus 1, NL43, read-out: HIV X4 % inhibition rep3 in U87 (P24 NO Washout)
[11] = Human immunodeficiency virus 1, NL43, read-out: HIV X4 %inhibition rep3 in U87 (P24 Washout)

SMILES	inhibition at 3.7 µM [1, 6] [%]	inhibition at 3.7 µM [1, 7] [%]	pEC50 (B. bovis (Texas strain))	Haemonchus contortus 96hr % dead (Haemonchus contortus) [%]	Aedes aegypti % dead 48hr (Aedes aegypti) [%]	inhibition at 100 µM [2] [%]	Mycobacterium marinum growth in Acanthamoeba castellanii DMSO=1 Infection Assay [3]	inhibition at 5 µM [4, 8] [%]	inhibition at 5 µM [4, 9] [%]	inhibition at 5 µM [4, 10] [%]	inhibition at 5 µM [4, 11] [%]	P. berghei Liver stage activity summary [5]	P. berghei Liver stage infection rate rep1 (luciferase) [5] [%]	P. berghei Liver stage infection rate rep2 (luciferase) [5] [%]
CCOC(=O)c1cnc2ccc(OC)cc2c1NCc1ccccc1 [MMV665813]	12	26	6.14	1	-2	-1.7	1.26	-50	-13	20	16	tox (tox (toxic) if >50% HepG2)	-3.22	-4
CCN(CC)c1cc(C)c2cc(NC(=O)c3cccc(OC)c3)ccc2n1 [MMV000498]	11	5	5.00	100	19	-6	0.94	–	-9	-118	-40	tox (tox (toxic) if >50% HepG2)	-3.74	-5.7
CCN1CCN(c2cc(C)c3cc(NC(=O)c4ccc(OC)c(OC)c4)ccc3n2)CC1 [MMV019074]	13	10	5.17	31	-20	3.48	0.93	–	7	14	6.64	tox (tox (toxic) if >50% HepG2)	-3.74	-4
COc1ccc(C(=O)Nc2ccc3nc(N4CCCCC4)cc(C)c3c2)cc1OC [MMV019758]	11	12	4.84	75	6	-8	1.23	31	83	68	24	tox (tox (toxic) if >50% HepG2)	-4	-4
COc1cc2cc(C(=O)Nc3ccccc3)c(N)nc2cc1OC [MMV006767]	2.43	10	6.07	57	-3	24	1.18	103	9	104	56	–	27	61
